Each block holds one molecule with its values, some of them ahead of it. Active and inactive are the calls of the source. The rule behind the calls is not given here.
Legend:
[1] = target: NACHT, LRR and PYD domains-containing protein 3 (Homo sapiens, UniProt Q96P20); experiment: Inhibition of NLRP3 inflammasome activation in PMA differentiated LPS-primed human THP-1 cells assessed as reduction in nigericin-induced IL-1beta level pretreated for 2 hrs followed by nigericin addition and measured after 30 mins by ELISA; type: cell-based
[2] = Cytotoxicity against human THP-1 assessed as reduction in cell viability measured after 72 hrs by CCK-8 assay; type: toxicity, cell-based; details: THP-1 cells
[3] = target: NACHT, LRR and PYD domains-containing protein 3 (Mus musculus) (UniProt Q8R4B8); experiment: Binding affinity to NLRP3 in mouse RAW264.7 cells assessed as thermal stabilization at 100 uM at 52 to 56 degreeC incubated for 6 hrs by cellular thermal shift assay; type: cell-based
[4] = Fluorescence property of the compound in DMSO assessed as quantum yield; type: physicochemical
[5] = Fluorescence property of the compound in DMSO assessed as maximum absorption wavelength; type: physicochemical
[6] = Fluorescence property of the compound in DMSO assessed as maximum emission wavelength; type: physicochemical
[7] = Fluorescence property of the compound in DMSO assessed as molar extinction coefficient; type: physicochemical
[8] = Drug distribution in cytoplasm of mouse RAW264.7 cells expressing NLRP3 assessed as increase in green fluorescence at 10 uM incubated for 0.5 hrs by Hoechst 33342 staining based confocal microscopic analysis; type: ADME, subcellular; details: raw264.7, 0.5 h
[9] = target: NACHT, LRR and PYD domains-containing protein 3 (Mus musculus) (UniProt Q8R4B8); experiment: Binding affinity to NLRP3 in mouse RAW264.7 cells assessed as increase in mean fluorescence intensity at 10 uM incubated for 30 mins by beckman coulter based flow cytometry analysis; type: cell-based
[10] = target: NACHT, LRR and PYD domains-containing protein 3 (Mus musculus) (UniProt Q8R4B8); experiment: Binding affinity to NLRP3 in mouse RAW264.7 cells assessed as increase in mean fluorescence intensity at 10 uM preincubated with LPS for 3 hrs followed by compound addition and measured after 30 mins by beckman coulter based flow cytometry analysis; type: cell-based

NACHT, LRR and PYD domains-containing protein 3 (Mus musculus), sequence (Q8R4B8 whole entry, the tested form may be a part): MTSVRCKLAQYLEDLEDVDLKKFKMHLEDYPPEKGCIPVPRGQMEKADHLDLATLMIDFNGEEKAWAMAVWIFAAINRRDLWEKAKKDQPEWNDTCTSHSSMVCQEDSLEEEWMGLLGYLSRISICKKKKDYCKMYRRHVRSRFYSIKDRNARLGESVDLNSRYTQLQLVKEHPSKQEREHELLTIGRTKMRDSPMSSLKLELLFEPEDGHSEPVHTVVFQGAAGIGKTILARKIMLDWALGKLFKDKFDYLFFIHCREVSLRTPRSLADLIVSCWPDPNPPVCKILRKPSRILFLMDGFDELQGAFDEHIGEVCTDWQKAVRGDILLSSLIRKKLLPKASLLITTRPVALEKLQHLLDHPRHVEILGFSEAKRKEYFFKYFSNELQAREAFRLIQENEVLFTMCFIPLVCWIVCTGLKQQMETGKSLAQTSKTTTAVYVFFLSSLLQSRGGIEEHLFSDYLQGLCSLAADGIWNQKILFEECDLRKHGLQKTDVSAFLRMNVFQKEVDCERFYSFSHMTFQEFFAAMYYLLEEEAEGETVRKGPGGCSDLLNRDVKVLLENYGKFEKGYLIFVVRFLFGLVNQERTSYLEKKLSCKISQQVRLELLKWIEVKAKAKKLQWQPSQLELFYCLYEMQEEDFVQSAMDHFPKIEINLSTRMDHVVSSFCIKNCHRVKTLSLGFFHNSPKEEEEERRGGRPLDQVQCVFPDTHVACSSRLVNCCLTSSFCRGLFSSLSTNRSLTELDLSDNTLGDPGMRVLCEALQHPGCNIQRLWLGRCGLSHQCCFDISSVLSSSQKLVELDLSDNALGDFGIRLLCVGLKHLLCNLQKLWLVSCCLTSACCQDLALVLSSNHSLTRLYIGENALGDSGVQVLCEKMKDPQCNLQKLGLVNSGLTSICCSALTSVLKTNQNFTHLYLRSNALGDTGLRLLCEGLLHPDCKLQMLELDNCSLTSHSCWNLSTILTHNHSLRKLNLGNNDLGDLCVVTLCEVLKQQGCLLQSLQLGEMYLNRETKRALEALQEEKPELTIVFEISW
NACHT, LRR and PYD domains-containing protein 3, sequence (Q96P20 whole entry, the tested form may be a part): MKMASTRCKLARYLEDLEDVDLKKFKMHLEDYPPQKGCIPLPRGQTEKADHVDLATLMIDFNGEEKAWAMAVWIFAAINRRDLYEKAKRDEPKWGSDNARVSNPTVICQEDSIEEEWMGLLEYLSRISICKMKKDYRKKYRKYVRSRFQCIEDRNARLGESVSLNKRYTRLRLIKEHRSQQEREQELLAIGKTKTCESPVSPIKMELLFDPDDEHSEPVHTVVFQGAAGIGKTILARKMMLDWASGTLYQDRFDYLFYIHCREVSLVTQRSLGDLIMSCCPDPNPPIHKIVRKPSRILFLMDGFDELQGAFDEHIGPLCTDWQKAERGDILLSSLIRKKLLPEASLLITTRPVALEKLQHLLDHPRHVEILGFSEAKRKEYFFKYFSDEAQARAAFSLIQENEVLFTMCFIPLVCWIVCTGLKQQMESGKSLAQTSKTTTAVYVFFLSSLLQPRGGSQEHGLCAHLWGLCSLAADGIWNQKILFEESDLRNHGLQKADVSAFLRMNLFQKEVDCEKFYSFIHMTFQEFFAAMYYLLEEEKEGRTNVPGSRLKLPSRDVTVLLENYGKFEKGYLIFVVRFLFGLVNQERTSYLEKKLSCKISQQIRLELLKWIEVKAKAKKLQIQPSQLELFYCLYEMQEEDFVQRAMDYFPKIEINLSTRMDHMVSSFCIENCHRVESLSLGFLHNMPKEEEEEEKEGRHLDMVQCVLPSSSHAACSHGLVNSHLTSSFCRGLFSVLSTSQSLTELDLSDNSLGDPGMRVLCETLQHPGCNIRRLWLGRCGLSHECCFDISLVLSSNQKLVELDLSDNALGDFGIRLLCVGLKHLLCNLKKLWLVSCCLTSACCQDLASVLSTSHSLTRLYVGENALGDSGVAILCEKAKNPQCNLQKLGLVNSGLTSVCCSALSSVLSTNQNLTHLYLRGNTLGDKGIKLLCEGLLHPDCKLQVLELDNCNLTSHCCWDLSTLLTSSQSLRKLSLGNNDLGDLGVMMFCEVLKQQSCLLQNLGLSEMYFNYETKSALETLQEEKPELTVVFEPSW

- IC50 [1]: 9.18 µM
Structure (SMILES): CN(C)c1cccc2c(S(=O)(=O)NC(=O)Nc3c4c(cc5c3CCC5)CCC4)cccc12
- CC50 at 72 h [2]: > 100 µM

Structure (SMILES): CN(C)c1ccc(S(=O)(=O)NC(=O)Nc2c3c(cc4c2CCC4)CCC3)c2n[se]nc12
- CC50 at 72 h [2]: > 100 µM

Structure (SMILES): CC(C)(C)OC(=O)NC1CN(c2ccc(S(=O)(=O)NC(=O)Nc3c4c(cc5c3CCC5)CCC4)c3nonc23)C1
- CC50 at 72 h [2]: > 100 µM

Structure (SMILES): O=C(Nc1c2c(cc3c1CCC3)CCC2)NS(=O)(=O)c1ccc(N2CC3CCC(C2)O3)c2nonc12
- CC50 at 72 h [2]: > 100 µM

Structure (SMILES): O=C(Nc1c2c(cc3c1CCC3)CCC2)NS(=O)(=O)c1ccc(N2C[C@@H]3[C@@H](CO)[C@@H]3C2)c2nonc12
- CC50 at 72 h [2]: > 100 µM

Structure (SMILES): O=C(Nc1c2c(cc3c1CCC3)CCC2)NS(=O)(=O)c1ccc(Cl)c2nonc12
- CC50 at 72 h [2]: > 100 µM

Structure (SMILES): O=C(Nc1c2c(cc3c1CCC3)CCC2)NS(=O)(=O)c1ccc(NC2CC(F)(F)C2)c2nonc12
- CC50 at 72 h [2]: > 100 µM

- Activity [3]: Active
- Activity [4]: 16%
- Activity [5]: 448 nm
- Activity [6]: 586 nm
- Activity [7]: 7406 M⁻¹ cm⁻¹
Structure (SMILES): CN(C)c1ccc(S(=O)(=O)NC(=O)Nc2c3c(cc4c2CCC4)CCC3)c2nonc12
- CC50 at 72 h [2]: > 100 µM

Structure (SMILES): CC(C)(O)c1coc(S(=O)(=O)NC(=O)Nc2c3c(cc4c2CCC4)CCC3)c1
- CC50 at 72 h [2]: 81.4 µM

Structure (SMILES): CSc1ccc(S(=O)(=O)NC(=O)Nc2c3c(cc4c2CCC4)CCC3)c2nonc12
- CC50 at 72 h [2]: > 100 µM

Structure (SMILES): O=C(Nc1c2c(cc3c1CCC3)CCC2)NS(=O)(=O)c1ccc(N2CCOCC2)c2nonc12
- CC50 at 72 h [2]: > 100 µM

- Drug uptake [8]: Active
- Activity [3]: Active
- Activity [4]: 6%
- Activity [5]: 450 nm
- Activity [6]: 602 nm
- Activity [9]: Active
- Activity [7]: 8085 M⁻¹ cm⁻¹
- Activity [10]: Active
Structure (SMILES): CN(C)c1ccc(S(=O)(=O)NC(=O)Nc2c3c(cc4c2CCC4)CCC3)c2nsnc12
- CC50 at 72 h [2]: > 100 µM

Structure (SMILES): CN(C)[C@@H]1CCCC[C@H]1N(C)c1ccc(S(=O)(=O)NC(=O)Nc2c3c(cc4c2CCC4)CCC3)c2nonc12
- CC50 at 72 h [2]: > 100 µM

- IC50 [1]: 2.38 µM
Structure (SMILES): O=C(Nc1c2c(cc3c1CCC3)CCC2)NS(=O)(=O)c1ccc(N2CCN(CCO)CC2)c2nonc12
- CC50 at 72 h [2]: > 100 µM

Reference: ChEMBL document CHEMBL5120824, “Synthesis and pharmacological validation of fluorescent diarylsulfonylurea analogues as NLRP3 inhibitors and imaging probes” (Eur J Med Chem, 2022)
